Experimental data taken from US20230103554A1, “TNFa SIGNALING [sequence] TUMOR-PROMOTING INFLAMMATION THAT CAN BE TARGETED TO THERAPY” (Baylor College of Medicine, priority 2020, published 2023).

Columns and labels:
[1] = test system: CHLA-255-luc/monocyte xenografts; experiment: CHLA-255-luc/monocyte subcutaneous xenograft in NSG mice; type: in vivo, mouse
Source text: (FIG. 16A) In vivo subcutaneous xenograft model. CHLA-255-luc and freshly isolated human monocytes were embedded in Matrigel and injected into the subcutaneous right flank of eight-week female NSG mice. […] (FIG. 16B) Luminescence readings for each mouse (n=10/group) measured in radiance (photons/second/cm2/steradian). (FIG. 16C) Graphical representation of total luminescence per tumor from (FIG. 16B) over time. (FIG. 16D) Mean tumor luminescence over time, two-way ANOVA with Bonferroni multiple comparisons test (n=10 per group). The top line is NB/Mon+Ctrl. (FIG. 16E) Representative tumors for each group following sacrifice at day 21. ** p<0.01;
Six-week old female NOD/SCID/IL-2Ry-null (NSG) mice were purchased from The Jackson Laboratory and maintained at the Baylor College of Medicine (BCM) animal care facility. At eight-weeks of age, mice were injected in the subcutaneous right flank with either 1×106 CHLA-255-luc (or SK-N-AS-luc) or a combination of 1×106 CHLA-255-luc and 1×10^6 human monocytes (or SK-N-AS-luc/monocyte) embedded in growth factor-reduced Matrigel (Corning) as previously described (54). […] Tumor growth was measured indirectly by weekly bioluminescent imaging (Small Animal Imaging Core Facility, Texas Children's Hospital). After three weeks, mice were euthanized and tumors were saved for IHC (see Tumor IHC) and RNA-seq (see RNA Analysis).

[2] = test system: NB tumor cell gene expression; experiment: Eukaryotic mRNA-seq of xenograft tumors; type: in vivo; conditions: mouse transcripts, vs control tumors
Source text: (FIG. 17A) Tumors recovered from mice in FIG. 16 were snap frozen in OTC media, thin sectioned, and stained for murine CD31 expression (red) and DAPI counterstain (blue). Results shown are representative images from five fields of view (FOVs) per tumor, with five tumors per group. Scale bar 50 μm. (FIG. 17B) Total number of CD31+ regions per FOV with box and whisker plot showing quartiles±range (Ctrl n=15, Etan n=25). (FIG. 17C) Size of each CD31+ area quantified per FOV; shown is median CD31+ area per FOV with box and whisker plot showing quartiles±range (Ctrl n=15, Etan n=25) (FIG. 17D) Longest distance across each CD31+ area (Max Feret distance) per FOV; shown is median distance per FOV with box and whisker plot showing quartiles±range (Ctrl n=15, Etan n=25). […]
Total RNA from cell pellets was isolated using the RNeasy Micro Plus Kit (Qiagen). […] Relative changes in gene expression were calculated based on the ΔCt method using housekeeping gene GAPDH as control. […]
Eukaryotic mRNA sequencing with 30M depth and 150 paired end reads was performed by Novogene, Inc. Quality control checks on FASTQ sequencing files were performed by FastQC (v0.11.2, https://www.bioinformatics.babraham.ac.uk/projects/fastqc/). Reads were then aligned to human (GRCh38, Ensembl release version 84) or mouse (GRCm38, Ensembl release version 81) reference genomes separately by hisat2 v2.1.0(51). […]

[3] = test system: SK-N-AS-luc; experiment: NB luminescence viability in monocyte co-culture; type: cell-based, human; conditions: SK-N-AS-luc + monocytes, 10 μg/mL etanercept, 72 hours (FIG. 8B)
Method: (FIG. 8A) Luciferase expressing CHLA-255-luc and SK-NAS-luc were cultured in 1-16,000 pg/mL rhTNF for 48 hours and viability of the cells was measured by luminescence. Data was normalized to untreated control and graphed as % Viability versus Log10 of TNF concentration.
Monocytes were directly cultured with wild-type or TNF, TNFR1, TNFR2 KO NB cell lines in ULA plates for 24 hours. Activation of NF-kB in monocytes and NB was measured by flow cytometry and cytokine production measured by ELISA from co-culture supernatant. To evaluate the contact-dependence of monocyte activation by NB, monocytes were cultured in ULA plates with seven-day NB conditioned medium mixed 1:1 with complete monocyte medium for 24 hours and analyzed for IL-6 production. […] Luminescence was measured using a TECAN Spark plate reader (TECAN). To evaluate changes in proliferation, NB was pulsed for 10 minutes in CellTrace Violet (2 μM, Invitrogen) and seeded at 100,000 cells per well in a 12-well tissue culture-treated plate. Monocytes were added directly to the NB monolayer at a density of 100,000 per well and incubated for four days. CellTrace Violet expression was analyzed by flow cytometry.

[4] = test system: SK-N-AS and monocytes; experiment: Tumorsphere cluster formation in low attachment plates; type: cell-based, human; conditions: 10 μg/mL etanercept, 24 hours, ultra low attachment plates

etanercept
reduction of tumor growth (luminescence) ([1]; 5 mg/kg (100 μg) i.p. bi-weekly, vs IgG control): 65% | macroscopic blood vessel development of treated tumors ([1]; etanercept bi-weekly, vs control tumors): appeared to lack blood vessel development | infiltration of erythrocytes, platelets, and neutrophils (mouse stroma gene expression) [2]: reduced infiltration of erythrocytes, platelets, and neutrophils | cell death caused by monocyte-produced TNF (luminescence) [3]: rescued | association of NB/monocytes into tumorsphere clusters [4]: blocking the ability of NB/monocytes to associate into tumorsphere clusters
